From PubChem BioAssay (NCI)
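These data come from cells grown in 96-well plates and exposed to compound for 48 hours at five concentrations. GI50 marks 50% less growth. TGI marks complete inhibition of growth.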

Columns and labels:
Assay in all cases: growth of human tumour cells (NCI), 48 h
SF-539 CNS = system: SF-539 CNS
SK-MEL-2 melanoma = system: SK-MEL-2 melanoma
UACC-257 melanoma = system: UACC-257 melanoma
A549 NSCLC = system: A549 NSCLC
HT29 colon = system: HT29 colon
TK-10 renal = system: TK-10 renal
A498 renal = system: A498 renal
CAKI-1 renal = system: CAKI-1 renal
SR leukemia = system: SR leukemia
BT-549 breast = system: BT-549 breast

SMILES | TGI (SF-539 CNS) [µM] | TGI (SK-MEL-2 melanoma) [µM] | TGI (UACC-257 melanoma) [µM] | TGI (A549 NSCLC) [µM] | TGI (HT29 colon) [µM] | TGI (TK-10 renal) [µM] | TGI (A498 renal) [µM] | TGI (CAKI-1 renal) [µM] | GI50 (SR leukemia) [µM] | TGI (SR leukemia) [µM] | GI50 (SF-539 CNS) [µM] | GI50 (SK-MEL-2 melanoma) [µM] | GI50 (UACC-257 melanoma) [µM] | GI50 (A549 NSCLC) [µM] | GI50 (HT29 colon) [µM] | GI50 (TK-10 renal) [µM] | GI50 (A498 renal) [µM] | GI50 (CAKI-1 renal) [µM] | GI50 (BT-549 breast) [µM] | TGI (BT-549 breast) [µM]
COC(=O)C(=O)C(C#N)c1nc2ccccc2s1 (stereo unspecified) | > 100 | > 100 | > 100 | > 100 | > 100 | > 100 | > 100 | > 100 |  |  |  |  |  |  |  |  |  |  |  | 
CN(C)CCC(N)(P(=O)([O-])[O-])P(=O)([O-])[O-].N.N.[Pt+2] | > 100 | > 100 | > 100 | > 100 | > 100 | > 100 | > 100 | > 100 | > 100 | > 100 | > 100 | > 100 | > 100 | > 100 | > 100 | > 100 | > 100 | > 100 |  | 
Cc1c(C(Cc2ccccc2N(C)C(=O)/C=C\C(=O)O)c2c[nH]c3ccccc23)c2ccccc2n1C (stereo unspecified) | 31.8 |  | 31.5 | 31.8 | 30.8 | 33.8 | 35.6 | 36 |  | 46.7 |  |  |  |  |  |  |  |  |  | 
Cc1cc(N(CCC#N)CCC#N)ccc1/C=C(\NC(=O)/C=C/c1ccccc1)C(=O)N=[N+]=[N-] | > 100 | > 100 | > 100 | > 100 | > 100 | > 100 | > 100 | > 100 |  |  |  |  |  |  |  |  |  |  |  | 
CCN(CC)CC(=O)NC1c2ccccc2Oc2ccccc21 | > 100 |  | > 100 | > 100 | > 100 | > 100 |  |  |  | > 100 |  |  |  |  |  |  |  |  |  | 
CN1CCN(Cc2ccc(NC(=O)c3cncc(C#Cc4cnc(N)c5ncccc45)c3)cc2C(F)(F)F)CC1 | 1.47 | 0.468 | 5.6 | 2.52 | 1.48 | 3.68 | 0.652 | 4.07 |  |  | 0.306 | 0.142 | 0.639 | 0.436 | 0.157 | 0.686 | 0.141 | 0.231 | 5.1 | 23.6
CC(C)(CN1CCCCC1)C(=O)/C=C/c1ccccc1 | 22.9 | 28.9 | 46.8 | 52.7 | 36.4 | 30.5 | 57.8 | 48 |  |  |  |  |  |  |  |  |  |  |  | 
O=C(/C=C/c1ccccc1)NC1C=Nc2ccc([N+](=O)[O-])cc2NC1=O (stereo unspecified) | > 100 | > 100 | > 100 | > 100 | > 100 | > 100 | > 100 | > 100 |  | > 100 |  |  |  |  |  |  |  |  |  | 
CN(C)CC1CC/C(=C\c2ccc(Cl)c(Cl)c2)C1=O (stereo unspecified) | > 55.7 | > 62.9 | > 60.9 | > 100 | 54.4 | 19.9 | 73.6 | 56.1 |  | 6.91 |  |  |  |  |  |  |  |  |  | 
NS(=O)(=O)c1ccc(N(/C=C/C(=O)C(F)(F)F)CC(=O)c2ccc(F)cc2)cc1 | 43 | 55.2 | 72.8 | > 100 | > 100 | > 100 | 0.54 | 56.9 |  |  | 20.9 | 26.1 | 22 | 44.2 | 35.2 | 25.9 | 0.0281 | 22.6 | 19.3 | 43.3
CC(=O)N1C/C(=C\c2ccccc2)C(=O)/C(=C/c2ccccc2)C1 | 34.3 | 56.6 | 18.6 | 55.1 | 13.8 | 34.8 | 31.8 | 35.5 |  | 17.5 |  |  |  |  |  |  |  |  |  | 
O=C(CCc1n[nH]c(=S)o1)Nc1cc(Cl)ccc1Cl | > 100 |  | > 100 | > 100 | > 100 | > 100 | > 100 | > 100 |  |  |  |  |  |  |  |  |  |  |  | 
NC(N)NCCCc1cn2c(n1)C1CCCN1C(=O)C2Cc1ccccc1 (stereo unspecified) | > 100 | > 100 | > 100 | > 100 | > 100 | > 100 | > 100 | > 100 |  |  |  |  |  |  |  |  |  |  |  | 
N#CC(C(=O)CCCC(=O)Nc1ccccc1[N+](=O)[O-])c1c(Cl)cccc1Cl (stereo unspecified) | > 100 | > 100 | > 100 | > 100 | > 100 | > 100 | > 100 | > 100 |  | > 100 |  |  |  |  |  |  |  |  |  | 
Cc1c(Cl)cccc1C(=O)Nc1nc2c(s1)CN(C(=O)Nc1cccc(C(F)(F)F)c1)CC2 | 0.885 | > 50 | > 50 | > 50 | > 23.3 | > 50 |  | > 50 | 0.0789 | > 50 | 0.155 | 0.283 | 2.21 | 0.33 | 0.173 | 1.56 |  | 0.216 | 0.547 | > 50
